Results published in patent US6750256B1, “Use of aromatic aldehydes as insecticides” (Proguard, Inc., priority 1994, dated 2004).

Assays:
[1] = test system: Adult human lice (Pediculus humanus); type: in vivo; conditions: 2% in water, lice submerged 1, 4 or 10 minutes
Method: Adult human lice (Pediculus humanus) were treated with α-butyl cinnamic aldehyde to determine its pediculicidal activity. […] For each of four replicates, 25 mixed sex lice were placed in a 9 dram plastic vial and covered with a screened plunger to keep the lice from floating to the surface. The vial containing the lice was dipped into a 100 ml beaker containing 2% α-butyl cinnamic aldehyde, which was dissolved in water or distilled water as a negative control. Lice were submerged in the 2% α-butyl cinnamic aldehyde for 1, 4 or 10 minutes. After this time, the test container was removed from the treatment, submerged in a 1000 mL beaker containing distilled water (32° C.) from a wash bottle. Subsequently, lice were allowed to recover in an incubator maintained at 31.7° C. in 60% RH (relative humidity) for 1 hour. Following the recovery period, lice were examined for their ability to move toward heat. For this observation, the lice were placed on a patch which was placed on a second patch that was on top of a slide warmer maintained at 37° C. Lice not dead or morbid (unable to move towards heat 1 hour after treatment; sickly, but not necessarily dying; may recover by 24 hours), will move to the lower patch. Lice again were examined for their ability to move towards 24 hours later. […]

[2] = test system: two-spotted spider mite, Tetranychus urticae; experiment: Spider mite treated petri dish contact bioassay; type: in vivo; conditions: positive control, 10 ppm; 24 hours contact
Method: Activity of cinnamic aldehyde and/or coniferyl aldehyde against two-spotted spider mite, Tetranychus urticae is determined as follows. In a double blind experiment, intersurfaces of petri dishes (60 mm diameter) were treated with 100 μl of a test formulation and allowed to air dry and used within the hour. Twenty adult spider mites were put in each dish and the percent of mortality of the spider mites after 24 hours in contact with the treated dishes Was determined.

[3] = at 25° C.; cited from earlier work
[4] = test system: human subjects; conditions: 12% in petrolatum; 48 hour closed-patch test on human subjects; cited from earlier work
[5] = test system: rats; conditions: cited from earlier work
[6] = test system: human subjects; conditions: 20% in diethylphthalate; 100 human subjects; cited from earlier work
[7] = test system: cat flea (Ctenocepalides felis); experiment: Cat flea contact treatment on sprayed carpet plugs; type: in vivo; conditions: 72 hours
Method: The treatment of cat flea (Ctenocepalides felis) with various formulations containing alpha hexyl cinnamaldehyde is tested as follows. In a double blind experiment, variable concentrations of the formulae were tested for activity against cat flea (Ctenocepalides felis). The initial experiments tested alpha hexyl cinnamaldehyde at concentrations of 5%, 10% and 20% in 6% Tween 80. As controls, a formula blank containing 6% Tween 80 and negative control with no formulae were tested. Fleas were put in direct contact with the formulae and mortality was assessed both visually and by probing at 72 hours after contact.
Approximately […] of each formula concentration was sprayed on 0.279 square meter carpet section (DuPont) at 20 PSI. After allowing to air dry (20 minutes), four plugs each 14 cm in diameter were cut from each treated carpet section. One plug was used for each replicate for four total replications. For each treatment and replicate, 25 fleas were introduced on each plug. Plugs were then rolled and put in an escape proof, ventilated 2 liter container. After 72 hours mortality was assessed.

[8] = test system: thrips insects (Frankliniella occidentalis); experiment: Residual activity on treated filter paper against thrips; type: in vivo; conditions: rehydrated 24 and 72 hours after spraying, thrips exposed one hour
Method: In the first experiment, two ml of two concentrations of CNMA (0.3 and 1%) were sprayed on filter paper (Whatman). As a negative control, two ml of water was also sprayed on filter paper. Twenty-four hours later, two ml of water were sprayed on treatment and control filter paper, which were then dried for 30 min. Approximately 30 thrips insects (Frankliniella occidentalis) were introduced onto the treated filter papers and the number of F. occidentalis were observed after one hour. Mean mortality was calculated for each treatment. After 72 hours, the treated filter papers were flipped over and only the negative control filter paper and the filter paper treated with 1% CNMA were sprayed with 2 ml of water and allowed to dry for 30 minutes. Approximately 30 thrips were introduced onto the two treated filter papers and after one hour the number of dead F. occidentalis were observed and the mean mortality calculated for each treatment. A similar assay was conducted using AHCNMA. Mean mortality was higher for rehydrated filter papers compared to non-rehydrated filter papers over time.

[9] = cited from earlier work

## CCCCC(C=O)=Cc1ccccc1 [α-butyl cinnamic aldehyde]
[1]; at 24 hours
  mortality: 98.6%
[1]; at the 1 hour time point
  knockdown: 100%

## CNC(=O)Oc1cccc2ccccc12 [Sevin, reference compound]
[2]
  Percent Mortality (24 hours): 100%

## CCN(CC)c1cccc(C)c1 [N,N-diethyl-m-toluamine, reference compound]
[3]
  vapor pressure: 167×10^−5 mm Hg

## CCCCCCC(C=O)=Cc1ccccc1 [HCA, 2-(phenylmethylene) octanal]
[4]
  irritation: no irritation
[5]
  oral LD50: 3100 mg/kg
[6]
  reactions in repeated insult patch test: no positive reactions
[7]; 5% wt/vol in 6% Tween 80
  Percent Mortality: 84%
[7]; 10% wt/vol in 6% Tween 80
  Percent Mortality: 92%
[7]; 20% wt/vol in 6% Tween 80
  Percent Mortality: 86%
[7]; all treatments (5%, 10% and 20% in 6% Tween 80)
  flea mortality: greater than 80%
[8]
  residual activity in words: residual activity
[9]
  dermal LD50: greater than 3 g/kg
[3]
  vapor pressure: 70×10^−5 mm Hg
